Data as given in ChEMBL document CHEMBL5696442, “Discovery of type II inhibitors of TGFβ-activated kinase 1 (TAK1) and mitogen-activated protein kinase kinase kinase kinase 2 (MAP4K2)” (J Med Chem, 2015).
Active and inactive are the calls of the source. The rule behind the calls is not given here.

Legend:
[1] = biological target: Vascular endothelial growth factor receptor 2 (Homo sapiens) (UniProt P35968); assay: Inhibition of VEGFR2 (unknown origin) at 10 uM by Ambit Kinomescan binding assay relative to control; values are per cent of control
[2] = biological target: Serine/threonine-protein kinase PAK 2 (Homo sapiens) (UniProt Q13177); assay: Inhibition of PAK2 (unknown origin) at 10 uM by Ambit Kinomescan binding assay
Chain of Serine/threonine-protein kinase PAK 2 (Homo sapiens) (Q13177 whole entry): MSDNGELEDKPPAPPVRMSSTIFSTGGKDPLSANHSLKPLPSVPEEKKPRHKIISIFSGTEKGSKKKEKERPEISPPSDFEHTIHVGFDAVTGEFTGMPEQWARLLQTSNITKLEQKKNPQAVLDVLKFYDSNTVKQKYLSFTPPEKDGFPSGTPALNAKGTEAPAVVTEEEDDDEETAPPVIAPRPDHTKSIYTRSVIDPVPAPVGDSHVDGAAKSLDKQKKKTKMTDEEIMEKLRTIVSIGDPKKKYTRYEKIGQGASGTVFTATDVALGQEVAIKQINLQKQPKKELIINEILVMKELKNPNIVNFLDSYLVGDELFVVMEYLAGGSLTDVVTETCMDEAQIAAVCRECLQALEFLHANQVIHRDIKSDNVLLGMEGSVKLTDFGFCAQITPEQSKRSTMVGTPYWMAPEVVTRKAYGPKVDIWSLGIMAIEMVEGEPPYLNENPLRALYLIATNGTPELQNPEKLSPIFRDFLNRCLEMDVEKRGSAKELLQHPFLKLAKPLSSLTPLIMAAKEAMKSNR

[3] = biological target: Vascular endothelial growth factor receptor 1 (Homo sapiens) (UniProt P17948); assay: Inhibition of FLT1 (unknown origin) at 10 uM by Ambit Kinomescan binding assay relative to control; values are per cent of control
Chain of Vascular endothelial growth factor receptor 1 (Homo sapiens) (P17948 whole entry): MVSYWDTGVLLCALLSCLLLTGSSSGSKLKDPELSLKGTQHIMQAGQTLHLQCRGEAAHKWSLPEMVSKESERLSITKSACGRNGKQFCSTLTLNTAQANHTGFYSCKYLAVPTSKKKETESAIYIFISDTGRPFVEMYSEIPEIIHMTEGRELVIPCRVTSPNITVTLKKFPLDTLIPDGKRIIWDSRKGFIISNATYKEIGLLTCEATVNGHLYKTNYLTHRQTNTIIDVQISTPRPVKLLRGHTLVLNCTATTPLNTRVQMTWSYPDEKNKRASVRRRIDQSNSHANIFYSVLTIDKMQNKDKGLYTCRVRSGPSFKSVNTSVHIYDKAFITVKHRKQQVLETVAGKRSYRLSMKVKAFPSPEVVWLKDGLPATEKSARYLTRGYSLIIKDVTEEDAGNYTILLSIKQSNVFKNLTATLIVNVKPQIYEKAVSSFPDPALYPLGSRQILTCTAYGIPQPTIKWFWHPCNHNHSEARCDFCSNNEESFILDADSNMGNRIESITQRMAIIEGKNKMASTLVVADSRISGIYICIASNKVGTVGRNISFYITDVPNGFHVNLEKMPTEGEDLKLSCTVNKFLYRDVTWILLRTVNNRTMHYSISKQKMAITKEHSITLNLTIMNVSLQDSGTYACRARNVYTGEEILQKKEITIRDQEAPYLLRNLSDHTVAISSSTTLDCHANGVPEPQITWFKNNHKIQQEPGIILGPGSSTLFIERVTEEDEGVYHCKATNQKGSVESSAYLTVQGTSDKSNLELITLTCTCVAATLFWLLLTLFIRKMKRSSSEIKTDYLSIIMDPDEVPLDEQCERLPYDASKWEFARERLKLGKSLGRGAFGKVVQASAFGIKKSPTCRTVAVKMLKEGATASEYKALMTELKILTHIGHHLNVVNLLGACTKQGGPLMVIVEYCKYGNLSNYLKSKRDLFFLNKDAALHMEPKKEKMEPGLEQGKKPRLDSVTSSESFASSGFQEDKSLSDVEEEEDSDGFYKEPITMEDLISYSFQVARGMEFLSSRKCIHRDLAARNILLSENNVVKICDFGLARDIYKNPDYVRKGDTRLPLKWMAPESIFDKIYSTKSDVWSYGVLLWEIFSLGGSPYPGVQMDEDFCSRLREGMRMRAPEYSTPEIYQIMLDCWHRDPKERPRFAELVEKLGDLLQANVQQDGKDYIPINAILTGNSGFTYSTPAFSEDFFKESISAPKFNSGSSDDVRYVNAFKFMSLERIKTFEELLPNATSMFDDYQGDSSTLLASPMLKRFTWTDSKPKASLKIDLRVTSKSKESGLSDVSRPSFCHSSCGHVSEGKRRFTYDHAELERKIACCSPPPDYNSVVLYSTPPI

[4] = biological target: Calcium/calmodulin-dependent protein kinase kinase 2 (Homo sapiens) (UniProt Q96RR4); assay: Inhibition of CaMKK2 Lys1 labeling site in human A-375 cells at 0.5 uM by KiNativ Profiling analysis relative to control; type: cell-based
Chain of Calcium/calmodulin-dependent protein kinase kinase 2 (Homo sapiens) (Q96RR4 2-588 limits assumed): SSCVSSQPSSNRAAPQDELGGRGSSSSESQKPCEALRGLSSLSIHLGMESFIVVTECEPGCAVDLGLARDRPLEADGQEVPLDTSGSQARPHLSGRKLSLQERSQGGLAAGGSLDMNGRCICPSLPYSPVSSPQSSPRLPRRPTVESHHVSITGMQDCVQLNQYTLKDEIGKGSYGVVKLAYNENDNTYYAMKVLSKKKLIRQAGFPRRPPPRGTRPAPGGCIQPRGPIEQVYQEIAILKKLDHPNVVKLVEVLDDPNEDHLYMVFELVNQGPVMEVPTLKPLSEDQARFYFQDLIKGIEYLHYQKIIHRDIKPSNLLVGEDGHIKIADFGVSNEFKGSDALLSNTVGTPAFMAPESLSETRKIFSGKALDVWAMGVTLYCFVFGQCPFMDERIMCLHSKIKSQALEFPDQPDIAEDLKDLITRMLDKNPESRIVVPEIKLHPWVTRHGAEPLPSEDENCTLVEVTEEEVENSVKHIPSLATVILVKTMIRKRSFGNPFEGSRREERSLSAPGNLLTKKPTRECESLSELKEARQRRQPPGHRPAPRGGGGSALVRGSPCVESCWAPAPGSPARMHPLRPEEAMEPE

[5] = biological target: T1, Serine/threonine-protein kinase ULK1 (Homo sapiens) (UniProt O75385); assay: Inhibition of ULK1 (unknown origin) at 10 uM by Ambit Kinomescan binding assay
T1 sequence (whole entry): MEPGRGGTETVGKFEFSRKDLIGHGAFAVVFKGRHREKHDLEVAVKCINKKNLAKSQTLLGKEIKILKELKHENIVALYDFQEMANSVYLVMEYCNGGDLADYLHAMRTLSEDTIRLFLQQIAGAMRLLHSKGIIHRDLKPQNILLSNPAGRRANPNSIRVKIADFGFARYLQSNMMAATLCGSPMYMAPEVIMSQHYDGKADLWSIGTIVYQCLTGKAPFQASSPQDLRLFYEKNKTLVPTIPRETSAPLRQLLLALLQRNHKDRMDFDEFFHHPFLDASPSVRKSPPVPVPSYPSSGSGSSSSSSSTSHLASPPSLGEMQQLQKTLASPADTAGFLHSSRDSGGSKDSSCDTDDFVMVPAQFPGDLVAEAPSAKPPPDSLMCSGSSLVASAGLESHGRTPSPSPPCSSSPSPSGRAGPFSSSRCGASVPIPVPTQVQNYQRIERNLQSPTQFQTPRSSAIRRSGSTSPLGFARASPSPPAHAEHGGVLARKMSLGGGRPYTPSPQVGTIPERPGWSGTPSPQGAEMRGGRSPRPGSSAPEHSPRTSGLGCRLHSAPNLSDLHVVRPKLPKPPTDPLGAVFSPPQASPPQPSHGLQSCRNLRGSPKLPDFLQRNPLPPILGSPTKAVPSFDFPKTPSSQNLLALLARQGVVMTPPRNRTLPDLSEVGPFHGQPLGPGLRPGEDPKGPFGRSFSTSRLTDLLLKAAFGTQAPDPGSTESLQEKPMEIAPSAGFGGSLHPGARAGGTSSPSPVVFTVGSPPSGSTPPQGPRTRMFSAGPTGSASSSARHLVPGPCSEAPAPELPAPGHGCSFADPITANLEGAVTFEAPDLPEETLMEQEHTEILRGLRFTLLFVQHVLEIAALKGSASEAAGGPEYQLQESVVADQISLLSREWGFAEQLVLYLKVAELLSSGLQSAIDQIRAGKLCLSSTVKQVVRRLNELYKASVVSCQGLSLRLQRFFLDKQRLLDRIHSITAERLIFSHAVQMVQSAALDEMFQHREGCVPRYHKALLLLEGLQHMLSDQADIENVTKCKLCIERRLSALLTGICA

[6] = biological target: Tyrosine-protein kinase CSK (Homo sapiens, UniProt P41240); assay: Inhibition of CSK ACT labeling site harbouring VSDFGLTKEASSTQDTGKLPVKWTAPEALR in human A-375 cells at 5 uM by KiNativ Profiling analysis relative to control; type: cell-based
Chain of Tyrosine-protein kinase CSK (P41240 2-450 limits assumed): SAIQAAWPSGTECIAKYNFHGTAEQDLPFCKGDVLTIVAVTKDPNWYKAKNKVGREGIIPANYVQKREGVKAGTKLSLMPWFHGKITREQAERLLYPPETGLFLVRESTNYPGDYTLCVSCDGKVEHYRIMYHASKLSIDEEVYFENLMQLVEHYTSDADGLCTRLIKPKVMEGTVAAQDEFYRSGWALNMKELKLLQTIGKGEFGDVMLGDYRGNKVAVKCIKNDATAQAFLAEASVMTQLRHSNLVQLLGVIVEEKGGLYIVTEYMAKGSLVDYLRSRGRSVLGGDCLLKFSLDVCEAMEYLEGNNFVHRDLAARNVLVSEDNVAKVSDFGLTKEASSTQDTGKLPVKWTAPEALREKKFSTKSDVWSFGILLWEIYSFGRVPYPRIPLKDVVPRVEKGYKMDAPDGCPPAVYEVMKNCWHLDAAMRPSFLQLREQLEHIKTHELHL

[7] = biological target: T1, Serine/threonine-protein kinase ULK1 (Homo sapiens); assay: Inhibition of ULK1 (unknown origin) at 1 uM by Ambit Kinomescan binding assay relative to control
[8] = biological target: Phosphatidylinositol 3-kinase C2 domain-containing subunit gamma (Homo sapiens) (UniProt O75747); assay: Inhibition of PIK3C2G (unknown origin) at 1 uM by Ambit Kinomescan binding assay relative to control; values are per cent of control
[9] = biological target: T2, Mitogen-activated protein kinase kinase kinase 3 (Homo sapiens) (UniProt Q99759); assay: Inhibition of MAP3K3 (unknown origin) at 1 uM by Ambit Kinomescan binding assay relative to control; values are per cent of control
T2 sequence (whole entry): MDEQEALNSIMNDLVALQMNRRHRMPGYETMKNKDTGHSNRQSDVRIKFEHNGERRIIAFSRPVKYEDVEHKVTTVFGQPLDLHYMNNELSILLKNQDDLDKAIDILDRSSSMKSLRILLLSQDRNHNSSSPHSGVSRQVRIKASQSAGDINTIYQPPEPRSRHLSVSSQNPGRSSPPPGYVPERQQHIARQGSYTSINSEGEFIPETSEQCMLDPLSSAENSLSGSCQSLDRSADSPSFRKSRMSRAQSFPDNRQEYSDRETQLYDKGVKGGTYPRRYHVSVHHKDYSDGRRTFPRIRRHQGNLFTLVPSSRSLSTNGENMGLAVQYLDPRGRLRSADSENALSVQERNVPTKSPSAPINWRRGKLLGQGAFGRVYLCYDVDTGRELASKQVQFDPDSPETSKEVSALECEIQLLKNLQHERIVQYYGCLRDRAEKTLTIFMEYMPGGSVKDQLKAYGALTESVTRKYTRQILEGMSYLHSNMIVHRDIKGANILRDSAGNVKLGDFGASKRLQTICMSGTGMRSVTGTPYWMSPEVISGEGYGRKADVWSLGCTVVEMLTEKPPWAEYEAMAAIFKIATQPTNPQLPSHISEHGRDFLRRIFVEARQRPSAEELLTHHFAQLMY

[10] = biological target: Atypical kinase COQ8B, mitochondrial (Homo sapiens) (UniProt Q96D53); assay: Inhibition of ADCK4 (unknown origin) at 1 uM by Ambit Kinomescan binding assay relative to control
Chain of Atypical kinase COQ8B, mitochondrial (Homo sapiens) (Q96D53 whole entry): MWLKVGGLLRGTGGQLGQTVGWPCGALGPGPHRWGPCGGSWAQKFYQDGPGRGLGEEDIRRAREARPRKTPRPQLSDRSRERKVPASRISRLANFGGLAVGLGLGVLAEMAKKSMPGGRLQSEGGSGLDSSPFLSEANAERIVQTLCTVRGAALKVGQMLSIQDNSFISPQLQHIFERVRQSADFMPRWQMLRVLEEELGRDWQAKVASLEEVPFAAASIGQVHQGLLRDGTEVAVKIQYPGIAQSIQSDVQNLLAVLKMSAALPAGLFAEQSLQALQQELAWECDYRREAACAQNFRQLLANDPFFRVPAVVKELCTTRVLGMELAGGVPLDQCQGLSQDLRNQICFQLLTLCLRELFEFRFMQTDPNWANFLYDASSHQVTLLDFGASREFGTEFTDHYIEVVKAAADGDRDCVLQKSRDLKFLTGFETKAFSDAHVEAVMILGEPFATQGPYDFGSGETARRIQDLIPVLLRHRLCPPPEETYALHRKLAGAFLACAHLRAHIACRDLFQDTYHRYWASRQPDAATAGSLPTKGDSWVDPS

[11] = biological target: Cyclin-dependent kinase 9 (Homo sapiens) (UniProt P50750); assay: Inhibition of CDK9 Lys2 labeling site in human A-375 cells at 0.5 uM by KiNativ Profiling analysis relative to control; type: cell-based
Chain of Cyclin-dependent kinase 9 (Homo sapiens) (P50750 whole entry): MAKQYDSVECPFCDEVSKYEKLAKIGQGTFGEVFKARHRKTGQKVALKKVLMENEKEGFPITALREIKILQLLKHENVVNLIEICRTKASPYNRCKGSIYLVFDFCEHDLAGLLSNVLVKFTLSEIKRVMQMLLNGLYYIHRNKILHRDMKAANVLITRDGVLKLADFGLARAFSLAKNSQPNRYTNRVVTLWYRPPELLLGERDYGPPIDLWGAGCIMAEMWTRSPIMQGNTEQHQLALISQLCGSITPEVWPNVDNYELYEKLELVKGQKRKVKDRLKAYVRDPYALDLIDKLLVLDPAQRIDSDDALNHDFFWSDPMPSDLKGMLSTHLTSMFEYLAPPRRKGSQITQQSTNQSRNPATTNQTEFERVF

[12] = biological target: STE20-like serine/threonine-protein kinase (Homo sapiens) (UniProt Q9H2G2); assay: Inhibition of SLK Lys1 labeling site in human Huh-7 cell lysate at 1 uM by KiNativ Profiling analysis relative to control; type: subcellular
[13] = biological target: Serine/threonine-protein kinase WNK3 (Homo sapiens) (UniProt Q9BYP7); assay: Inhibition of Wnk3 ACT labeling site in human Huh-7 cell lysate at 1 uM by KiNativ Profiling analysis relative to control; type: subcellular
[14] = biological target: Serine/threonine-protein kinase 10 (Homo sapiens) (UniProt O94804); assay: Inhibition of LOK Lys2 labeling site harbouring IIHRDLKAGNVLMTLEGDIR in human Huh-7 cell lysate at 1 uM by KiNativ Profiling analysis relative to control; type: subcellular
Chain of Serine/threonine-protein kinase 10 (Homo sapiens) (O94804 whole entry, looked up): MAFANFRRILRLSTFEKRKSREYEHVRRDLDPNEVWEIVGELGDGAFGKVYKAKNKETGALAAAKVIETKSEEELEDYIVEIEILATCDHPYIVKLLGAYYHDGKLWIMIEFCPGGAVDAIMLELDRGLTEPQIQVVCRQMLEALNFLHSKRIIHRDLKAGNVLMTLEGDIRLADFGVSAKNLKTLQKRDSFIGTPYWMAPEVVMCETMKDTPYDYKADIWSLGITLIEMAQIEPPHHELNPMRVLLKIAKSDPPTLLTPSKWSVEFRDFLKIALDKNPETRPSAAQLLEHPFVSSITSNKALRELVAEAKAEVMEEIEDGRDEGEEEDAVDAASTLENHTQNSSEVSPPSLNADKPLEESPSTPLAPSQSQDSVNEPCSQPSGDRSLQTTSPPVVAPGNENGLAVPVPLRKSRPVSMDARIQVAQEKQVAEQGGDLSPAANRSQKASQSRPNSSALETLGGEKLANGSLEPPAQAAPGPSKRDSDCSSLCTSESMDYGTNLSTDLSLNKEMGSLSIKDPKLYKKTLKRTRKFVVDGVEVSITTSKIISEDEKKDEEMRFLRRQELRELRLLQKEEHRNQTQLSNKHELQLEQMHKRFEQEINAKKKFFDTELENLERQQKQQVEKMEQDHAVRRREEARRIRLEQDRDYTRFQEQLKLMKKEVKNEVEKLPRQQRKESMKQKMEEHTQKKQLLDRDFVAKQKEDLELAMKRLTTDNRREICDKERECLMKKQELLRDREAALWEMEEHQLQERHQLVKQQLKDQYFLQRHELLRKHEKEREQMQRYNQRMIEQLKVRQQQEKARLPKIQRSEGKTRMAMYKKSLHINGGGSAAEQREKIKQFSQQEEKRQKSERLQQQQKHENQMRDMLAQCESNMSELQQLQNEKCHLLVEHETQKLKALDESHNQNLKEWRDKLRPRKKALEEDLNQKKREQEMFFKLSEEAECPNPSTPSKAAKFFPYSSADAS

## CCN1CCN(Cc2ccc(NC(=O)c3ccc(C)c(Oc4ccnc5[nH]ccc45)c3)cc2C(F)(F)F)CC1
[1]
  residual activity: 1.5%
[2]
  inhibition: inactive
[3]
  percent of control: 1.6%
[4]
  inhibition: 6.3%
[5]
  inhibition: inactive
[6]
  inhibition: 57.7%

## CCN1CCN(Cc2ccc(NC(=O)c3ccc(C)c(/C=C/c4cnc5[nH]ccc5c4OC)c3)cc2C(F)(F)F)CC1
[7]
  inhibition: 68%
[8]
  residual activity: 100%
[9]
  residual activity: 2%
[10]
  inhibition: 81%
[11]
  inhibition: 1.5%

## CNc1cc(Oc2cc(C(=O)Nc3cc(N4CCN(C)CC4)cc(C(F)(F)F)c3)ccc2C)ncn1
[12]
  inhibition: 3.9%
[13]
  inhibition: -6.9%
[14]
  inhibition: 12.3%
